Usually EC50 stands for the concentration at which the effect is half-maximal. As usually defined, the IC50 is the concentration that gives 50% inhibition.

Test [1] concerns the target KRAS^G12D-FMe.RAF1^RBDCRD complex (Homo sapiens, UniProt P01116, G12D). Briefly: SHG assay: binding to bilayer-tethered KRAS G12D/RAF1 complex. The following applies: GppNHp-loaded complex on PS bilayer; compound 0.027-40 μM, monitored over 60 min. How it is done:
Compounds suspected to carry intrinsic SHG activity were tested in the presence of an unlabeled KRAS^G12D-FMe.RAF1^RBDCRD complex to monitor binding. PS bilayer was prepared from PS-enriched small unilamellar vesicles (SUVs) purchased from Biodesy, Inc. The concentrated SUVs were diluted in TBS buffer containing 5 mM CaCl2 and incubated on a glass-bottom 384-well Biodesy Delta™ assay plate to allow bilayer formation. Equimolar amounts of GppNHp-loaded KRAS^G12D-FMe and RAF1^RBDCRD were mixed and incubated together on PS bilayer overnight at 4° C. The following day, untethered protein was removed by washing with assay buffer (20 mM Hepes, pH 7.4, […], 1 mM TCEP, 5 μM GppNHp). The SHG signal produced by bilayer-tethered complex was ready using the Biodesy Delta™ platform where each well was pulsed with an 800 nm laser and the resulting second harmonic signal intensity at 400 nm was collected. Compounds were diluted into the same assay buffer and applied to the complex at a final concentration range spanning 0.027 μM-40 μM and the SHG intensity of each well was monitored at 5 minute intervals over a 60 minute time period.

Test [2] deals with Phospho-ERK (Thr202/Tyr204) in MiaPaCa-2 cells. In words: pERK inhibition in MiaPaca-2 cell line (HTRF). In kind it is cell-based. The following applies: Homo sapiens, MIA PaCa-2, 1 hour incubation with compound. How it is done:
MiaPaCa-2 cells (ATCC CRL-1420) were cultured in high glucose DMEM (Gibco 11965092) containing 10% fetal bovine serum (Gibco 1993708) and 1× Penicillin/Streptomycin, at 37° C. in a humid atmosphere of 5% CO2 in the air. Cells were plated in tissue-culture treated 96-well plates at a density of 10,000 cells/well and allowed to attach for 16 hours. The medium was then removed, and diluted compounds were added in a final concentration of 0.5% DMSO. After 1 hour of incubation, cells were lysed by the lysis buffer supplied with the Phospho-ERK (Thr202/Tyr204) cellular HTRF kit (Cisbio 64ERKPEH) and transferred to a 384-well low-volume white plate (PerkinElmer 6008280). The cell lysates were treated with the detection reagents supplied with the HTRF kit for 4 hours at ambient temperature in darkness. Two fluorescence intensities at the wavelengths (665 and 620 nm) were measured by the Envision plate reader (Perkin Elmer), and the data were processed and fitted to a 4-parameter logistic model for IC50 calculation (GraphPad Prism 9).
Background: TR-FRET usually uses a lanthanide donor and a delayed reading to cut background.

For test [3], the system named is pERK (ERK phospho-T202/Y204) in SW-480 cells. In words: pERK inhibition in SW-480 cell line (HTRF). In kind it is cell-based. The note with it: Homo sapiens, SW480, 1 hour incubation with compound. How it is done: SW-480 cells were cultured in Leibovitz's L15 (Gibco Cat. No. 11415064), supplemented with 10% fetal bovine serum (Gibco, Cat. No. 1993708), and 1% penicillin and streptomycin. Cells were grown at 37° C., under atmospheric conditions without additional CO2. Cells were seeded into a 96-well tissue-culture treated plate (Greiner, Cat. No. 655180) at a density of 30,000 cell per well, and allowed to adhere for 16 hours before the media was removed, and cells were treated with compounds diluted into culture media at the indicated concentrations. After 1 hour of incubation in the presence of compound, cells were harvested to measure pERK levels using the lysis buffer supplied with the Homogenous Time Resolved Fluorescence pERK kit (HTRF, Cisbio Advance ERK phospho-T202/Y204, Cat. No. 64AERPEG). Lysates were transferred to a 384-well low-volume white plate (PerkinElmer, Cat. No. 6008280) and then treated with the detection reagents supplied by the HTRF kit, according to the “2-plate” protocol supplied by the manufacturer, and incubated for 4-hours at ambient temperature in darkness. Assay plates were read at two fluorescent wavelengths (665 nm and 620 nm) using an Envision plate reader (Perkin Elmer) and data was processed and fitted to a 4-parameter logistic model using Graphpad Prism 8.0 to calculate IC50 values.

`N#CC1(C(=O)NCc2cnc(-c3ccc(Cl)c(C(F)(F)F)c3)nc2N2CCC(CN)C2)CC1` (centres unmarked) [Compound 5, N-[[4-[3-(aminomethyl)pyrrolidin-1-yl]-2-[4-chloro-3-(trifluoromethyl)phenyl]pyrimidin-5-yl]methyl]-1-cyano-cyclopropanecarboxamide] displayed an EC50 in test [1] of 1 to 10 µM. The IC50 in test [2] and in test [3] was 1 to 10 µM in each case.
Molecule `Cc1ccc(-c2ncc(CNC(=O)C3(C#N)CC3)c(N3CCC(CN)C3)n2)cc1Cl` (centres unmarked) [Compound 41] gave an EC50 in test [1] of 1 to 10 µM. Also, the IC50 in test [2] lay within 0.1 to 1 µM; in test [3], 1 to 10 µM.
Regarding `Cc1cc(-c2ncc(CNC(=O)C3(C#N)CC3)c(N3CCC(CN)C3)n2)ccc1Cl` (centres unmarked) [Compound 52], in test [1], the EC50 lay in the range of 10 to 50 µM. The 50% inhibitory concentration (IC50) in test [2] and in test [3] was 1 to 10 µM throughout.
Turning to `N#CC1(C(=O)NCc2cnc(-c3ccc(Cl)c(C(F)F)c3)nc2N2CCC(CN)C2)CC1` (centres unmarked) [Compound 57], in test [1], the EC50 was 10 to 50 µM. In addition, the IC50 in test [2] and in test [3] was 1 to 10 µM each time.
Molecule `Cc1ccc(-c2ncc(CNC(=O)C3(F)CC3)c(N3CCC(CN)C3)n2)cc1Cl` (centres unmarked) [Compound 59] gave an EC50 in test [1] of 1 to 10 µM. Further, the IC50 in test [2] and in test [3] was 1 to 10 µM in each case.
With `Cc1ccc(-c2ncc(CNC(=O)C3(C#N)CC3)c(N3CC[C@@H](CN)C3)n2)cc1Cl` [Compound 62], in test [1], the EC50 fell in the range of 1 to 10 µM. For the same molecule, the values for the IC50 in test [2] and in test [3] were 0.1 to 1 µM and 1 to 10 µM, respectively.
In turn, `Cc1ccc(-c2ncc(CNC(=O)C3(C#N)CC3)c(N3CCC(N)CC3)n2)cc1Cl` [Compound 67] showed an EC50 in test [1] of 1 to 10 µM. In addition, the IC50 in test [2] fell in the range of 0.1 to 1 µM; in test [3], 1 to 10 µM.
Consider `Cc1ccc(-c2ncc(CNC(=O)C3(F)CC3)c(N3CC[C@@H](CN)C3)n2)cc1Cl` [Compound 72], for which the IC50 in test [2] and in test [3] was 1 to 10 µM throughout.
Molecule `Cc1ccc(-c2ncc(CNC(=O)C3(C#N)CC3)c(N3CC[C@H](CN)C3)n2)cc1Cl` [Compound 73] registered an EC50 in test [1] of 1 to 10 µM. Also, the IC50 in test [2] and in test [3] was 0.1 to 1 µM each time.
In turn, `Cc1ccc(-c2ncc(CNC(=O)C3(C)COC3)c(N3CCC(CN)C3)n2)cc1Cl` (centres unmarked) [Compound 80] had an EC50 in test [1] of 10 to 50 µM. The IC50 in test [2] was in the range of 1 to 10 µM.
In turn, `Cc1ccc(-c2ncc(CNC(=O)C3(N)CC3)c(N3CCC(CN)C3)n2)cc1Cl` (centres unmarked) [Compound 81] displayed an EC50 in test [1] of 10 to 50 µM. The IC50 in test [2] was 1 to 10 µM.
As for `Cc1ccc(-c2ncc(CNS(=O)(=O)C3CC3)c(N3CCC(CN)C3)n2)cc1Cl` (centres unmarked) [Compound 82], in test [1], the EC50 was 1 to 10 µM. The IC50 in test [2] lay within 1 to 10 µM.
`Cc1ccc(-c2ncc(CNC(=O)C3(F)CC3)c(N3CCN(C)CC3)n2)cc1Cl` [Compound 83] came in with a half-maximal effective concentration (EC50) in test [1] of 10 to 50 µM. Moreover, the IC50 fell in the range of 1 to 10 µM in test [2] and 10 to 50 µM in test [3].
With `Cc1ccc(-c2ncc(CNC(=O)C3(F)CC3)c(N3C[C@@H]4[C@@H](N)[C@@H]4C3)n2)cc1Cl` [Compound 84], the EC50 in test [1] lay in the range of 1 to 10 µM. In addition, the IC50 in test [2] and in test [3] was 1 to 10 µM in each case.
In test [1], `Cc1ccc(-c2ncc(CNC(=O)C3(C#N)CCC3)c(N3CCC(CN)C3)n2)cc1Cl` (centres unmarked) [Compound 87] returned an EC50 of 1 to 10 µM. The IC50 in test [2] and in test [3] was 1 to 10 µM each time.
`C=C(C)C(=O)NCc1cnc(-c2ccc(C)c(Cl)c2)nc1N1CCC(CN)C1` (centres unmarked) [Compound 88]: in test [1], the EC50 was 1 to 10 µM. Besides, the IC50 in test [2] fell in the range of 1 to 10 µM.
Turning to `Cc1ccc(-c2ncc(CNC(=O)C3(F)CC3)c(OC3CCN(C)C3)n2)cc1Cl` (centres unmarked) [Compound 89], the EC50 in test [1] lay in the range of 10 to 50 µM. For the same molecule, the IC50 in test [2] was in the range of 1 to 10 µM.
Molecule `NCC1CCN(c2nc(-c3ccc(C(F)(F)F)c(Cl)c3)ncc2N2CCCC2=O)C1` (centres unmarked) [Compound 90, 1-[4-[3-(aminomethyl)pyrrolidin-1-yl]-2-[3-chloro-4-(trifluoromethyl)phenyl]pyrimidin-5-yl]pyrrolidin-2-one] displayed an EC50 in test [1] of 1 to 10 µM. Moreover, the IC50 in test [2] and in test [3] was 1 to 10 µM each time.
Molecule `Cc1ccc(-c2ncc(CNC(=O)C3(F)CC3)c(N3CCNCC3)n2)cc1Cl` [Compound 91] came in with an EC50 in test [1] of 1 to 10 µM. Further, the IC50 in test [2] and in test [3] was 1 to 10 µM throughout.
`Cc1ccc(-c2ncc(CNC(=O)C3(F)CC3)c(N3CCC(N)CC3)n2)cc1Cl` [Compound 92] had an EC50 in test [1] of 1 to 10 µM. Further, the IC50 in test [2] is 1 to 10 µM.
In test [1], `Cc1ccc(-c2ncc(CNC(=O)C3(F)CC3)c(N3CC[C@H](CN)C3)n2)cc1Cl` [Compound 93] registered an EC50 of 1 to 10 µM. Also, in test [2], the IC50 was 1 to 10 µM.
On to `Cc1ccc(-c2ncc(CNS(=O)(=O)c3ccccc3)c(N3CCC(CN)C3)n2)cc1Cl` (centres unmarked) [Compound 94], for which the EC50 in test [1] was 1 to 10 µM. Further, the IC50 in test [2] lay within 1 to 10 µM.
Take `Cc1ccc(-c2ncc(CNC(=O)C3(O)CC3)c(N3CCC(CN)C3)n2)cc1Cl` (centres unmarked) [Compound 96]: the EC50 in test [1] fell in the range of 1 to 10 µM. In test [2], the IC50 lay within 1 to 10 µM.
In the case of `Cc1ccc(-c2ncc(CN(C)C(=O)C3(F)CC3)c(N3CCNCC3)n2)cc1Cl` [Compound 98], the EC50 in test [1] lay in the range of 1 to 10 µM. Also, the IC50 in test [2] was 1 to 10 µM.
`Cc1ccc(-c2ncc(CNC(=O)C3(F)CC3)c(N3CC(CN)C3)n2)cc1Cl` [Compound 101] returned an EC50 in test [1] of 10 to 50 µM. For the same molecule, the IC50 in test [2] was 1 to 10 µM.
Molecule `Cc1ccc(-c2ncc(CNC(=O)C3(F)CNC3)c(N3CCC(CN)C3)n2)cc1Cl` (centres unmarked) [Compound 102] registered an EC50 in test [1] of 1 to 10 µM. In test [2], the IC50 was in the range of 1 to 10 µM.
`NCC1CCN(c2nc(-c3ccc(C(F)(F)F)c(Cl)c3)ncc2N2CCNC2=O)C1` (centres unmarked) [Compound 109, 1-[4-[3-(aminomethyl)pyrrolidin-1-yl]-2-[3-chloro-4-(trifluoromethyl)phenyl]pyrimidin-5-yl]imidazolidin-2-one] came in with an EC50 in test [1] of 1 to 10 µM. Moreover, in test [2], the IC50 was 1 to 10 µM.
As to `Cc1ccc(-c2ncc(NC(=O)C3(C#N)CC3)c(N3CCC(CN)C3)n2)cc1Cl` (centres unmarked) [Compound 110], in test [1], the EC50 lay in the range of 10 to 50 µM. In addition, the IC50 in test [2] is 1 to 10 µM.
The like results for `Cc1ccc(-c2ncc(NC(=O)C3CC3)c(N3CCC(CN)C3)n2)cc1Cl` (centres unmarked) [Compound 113] were, in that order, 10 to 50 µM and 1 to 10 µM.
`CCOC(=O)NCc1cnc(-c2ccc(C)c(Cl)c2)nc1N1CCC(CN)C1` (centres unmarked) [Compound 118]: in test [1], the EC50 lay within 10 to 50 µM. Further, the IC50 in test [2] lay within 1 to 10 µM.
Turning to `Cc1ccc(-c2ncc(CN3CCNC3=O)c(N3CCC(CN)C3)n2)cc1Cl` (centres unmarked) [Compound 119], in test [1], the EC50 was in the range of 1 to 10 µM. Also, the IC50 in test [2] is 1 to 10 µM.
Turning to `Cc1ccc(-c2ncc(CN3CCN(C)C3=O)c(N3CCC(CN)C3)n2)cc1Cl` (centres unmarked) [Compound 120], the EC50 in test [1] lay in the range of 10 to 50 µM. Moreover, the IC50 in test [2] was in the range of 1 to 10 µM.
With `Cc1ccc(-c2ncc(CN3CCOC3=O)c(N3CCC(CN)C3)n2)cc1Cl` (centres unmarked) [Compound 121, 3-[[4-[3-(aminomethyl)pyrrolidin-1-yl]-2-(3-chloro-4-methyl-phenyl)pyrimidin-5-yl]methyl]oxazolidin-2-one], in test [1], the EC50 lay in the range of 1 to 10 µM. In addition, in test [2], the IC50 is 1 to 10 µM.
`Cc1ccc(-c2ncc(CN3CCCC3=O)c(N3CCC(CN)C3)n2)cc1Cl` (centres unmarked) [Compound 122] registered an EC50 in test [1] of 1 to 10 µM. Moreover, the IC50 in test [2] was 1 to 10 µM.
`Cc1ccc(-c2ncc(OCC(=O)NC3CC3)c(N3CCC(CN)C3)n2)cc1Cl` (centres unmarked) [Compound 126] showed an EC50 in test [1] of 1 to 10 µM. Moreover, the IC50 in test [2] is 1 to 10 µM.

The record behind these values is US20240327356A1, “PYRIMIDINE BASED RAS MODULATORS AND USES THEREOF” (QUANTA THERAPEUTICS, INC., priority 2021, published 2024).
